The text below walks through data of patent US20100152108A1, “METHODS AND COMBINATION THERAPIES FOR TREATING ALZHEIMER'S DISEASE” (priority 2006, published 2010).

Values joined by “and” are separate entries in the source; they are usually repeats but may differ in a detail not shown here. Equal entries are not always repeated. Where two headings read alike, the source gives them in different places.

One data set deals with scopolamine-treated rats. The data set can be described thus: Two-trial object recognition paradigm in scopolamine-treated rats. The class given is in vivo, Sprague-Dawley rats. The conditions noted are these: for Memory Performance (N-F, difference in time spent with the novel object and familiar object): scopolamine 0.3 mg/kg i.p., mean ± SEM.
Data set [1] concerns patients with mild to moderate Alzheimer's disease.
Description: Patients were evaluated with the ADAS-cog (primary endpoint), CIBIC-plus, MMSE, NPI and ADL at baseline, week 12 and week 26. The Alzheimer's Disease Assessment Scale Cognitive Subscale (ADAS-cog) score assesses memory and cognition over time. The Mini Mental State Exam (MMSE) also assesses memory and cognition. The Alzheimer's Disease Cooperative Study-Clinical Global Impression of Change (ADCS-CGIC, also called CIBIC-plus) measures the patient's global status over time. It takes into account memory, cognition, behavior and motor disturbance. The Neuropsychiatric Inventory (NPI) measures the patients' behavior and psychiatric disturbance in 12 domains including delusions, hallucinations, agitation/aggression, depression/dysphoria, anxiety, elation/euphoria, apathy/indifference, disinhibitions, irritability/lability, motor disturbance, nighttime behaviors, and appetite/eating. An ADL inventory assesses the impact of cognitive impairment on activities of daily living. […] All subjects enrolled were included in the intention-to-treat analysis. Thus, the analysis includes all randomized patients, even those who discontinued the study prior to study completion.
In another data set the test system is amyloid beta 42 (Aβ42). Conditions: cultured human cells and animal models; cited from earlier work.
In data set [2] the test system is human neuroblastoma SK-N-SH. The conditions noted are these: cited from earlier work.
In data set [3] the test system is release of acetylcholine from the cortex. The conditions noted are these: microdialysis; cited from earlier work.
Where [4] appears, read: week 26, dimebon 20 mg orally three times a day vs placebo.

Description for scopolamine-treated rats: The two-trial object recognition paradigm developed by Ennaceur and Delacour in the rat was used as a model of episodic memory.
Male Sprague-Dawley rats between six and seven weeks old, weighing between 220-300 grams were obtained from Centre d′Elevage (Rue Janvier, B.P. 55, Le Genest-Saint-Isle 53940, France). The animals were housed in groups of 2 to 4 in polypropylene cages (with a floor area of 1032 cm^2) under standard conditions: at room temperature (22±2° C.), under a 12 hour light/12 hour dark cycle, with food and water provided ad libitum. Animals were permitted to acclimate to environmental conditions for at least 5 days before therapy begins, and were numbered on their tails with indelible marker.
The experimental arena was a square wooden box (60 cm×60 cm×40 cm) painted dark blue, with 15 cm×15 cm black squares under a clear plexiglass floor. The arena and objects placed inside the arena were cleaned with water between each trial to eliminate any odor trails left by rats. The arena was placed in a dark room illuminated only by halogen lamps directed towards the ceiling in order to produce a uniformly dim light in the box of approximately 60 lux. The day before testing, animals were allowed to freely explore the experimental arena for three minutes in the presence of two objects (habituation). Animals to be tested were placed in the experimental room at least 30 minutes before testing.
On the day of the experiment, animals were submitted to two trials separated by an interval of 120 minutes. During the first, or acquisition, trial (T1), rats were placed in the arena, which was prepared with two identical objects. The time required for each animal to complete 15 seconds of object exploration was determined, with a cut-off time of four minutes. […] Rats were placed back in the arena for three minutes, and exploration of both objects was determined. Locomotor activity of rats (number of times rats cross grid lines visible under the clear plexiglass floor) was scored for during T1 and T2. […]
The following parameters were measured: (1) time required to achieve 15 seconds of object exploration during T1; (2) locomotor activity during T1 (number of crossed lines); (3) time spent in active exploration of the familiar object during T2 (TFamiliar); (4) time spent in active exploration of the novel object during T2 (TNovel); and (5) locomotor activity during T2 (number of crossed lines). The difference between time spent in active exploration of the novel object during T2 and time spent in active exploration of the familiar object during T2 (ΔTNovel−TFamiliar) was evaluated. The recognition index [(TNovel−TFamiliar/(TNovel+TFamiliar)] was derived, and the percentage of animals with TNovel−TFamiliar>5 seconds was assessed. […]

Turning to `Cc1ccc2c(c1)c1c(n2CCc2ccc(C)nc2)CCN(C)C1.Cl.Cl` [Dimebon, 2,8-dimethyl-5-(2-(6-methyl-3-pyridyl)-ethyl)-2,3,4,5-tetrahydro-1H-pyrido(4,3-b)indol dihydrochloride], the “effect at doses below the maximally effective dose, tested individually” value in the data set on scopolamine-treated rats (dimebon 2.5 mg/kg oral, donepezil 0.03 mg/kg intraperitoneal) is listed as “only partially effective”. Also, the maximally effective dose in the data set with scopolamine-treated rats (oral) is recorded as 5 mg/kg. The “Memory Performance (N-F, difference in time spent with the novel object and familiar object)” value in the data set with scopolamine-treated rats (vehicle i.p. + Dimebon 2.5 mg/kg p.o.) came to 2.57 ± 0.95 s. The “Memory Performance (N-F, difference in time spent with the novel object and familiar object)” value in the data set with scopolamine-treated rats (vehicle i.p. + Dimebon 5 mg/kg p.o.) was 5.00 ± 2.09 s. In data set [1] (in vivo), the “all other gastrointestinal side effects combined” value is on record as less than 3%, the “patients who experienced serious adverse events” value stood at 3.4% and the tolerability entry is reported as “well-tolerated”. Also, in data set [1] (in vivo, po), the “patients who experienced serious adverse events” value is given as 2.2%. For the same molecule, in data set [1] (in vivo, dihydrochloride), the “most common adverse event: dry mouth” value was 18% and 13.5%. Besides, in data set [1] (setting [4]), the “ADL mean drug-placebo difference” value was 3.35 units, the “CIBIC-plus mean drug-placebo difference” value was found to be 0.61 units, the “MMSE mean drug-placebo difference” value is 2.24 units and the “NPI mean drug-placebo difference” value amounted to 3.57 units. Also, the “ADAS-cog mean drug-placebo difference” value in data set [1] (week 26, dimebon 20 mg orally three times a day vs placebo, intention-to-treat) came to 4.0 units. In addition, the “change in the 5 endpoints, mean baseline scores compared with week 26 scores” value in data set [1] (week 26 vs baseline, ADAS-cog, CIBIC-plus, MMSE, NPI, ADL) is listed as “significant improvements in all 5 endpoints”. In addition, in data set [1] (week 52, dimebon vs placebo), the “ADAS-cog mean drug-placebo difference” value came to 6.9 units, the “ADL mean drug-placebo difference” value is 5.2 units, the “CIBIC-plus mean drug-placebo difference” value stood at 0.80 units and the “MMSE mean drug-placebo difference” value came out at 2.3 units. Also, the “NPI mean drug-placebo difference” value in data set [1] (week 52, dimebon vs placebo) amounted to 3.5 units. In data set [1] (week 52 vs baseline, ADAS-cog, CIBIC-plus, MMSE, NPI, ADL), the “change in the 5 endpoints, mean baseline scores compared with week 52 scores” value is listed as “improvements in all 5 endpoints”.
As to `C[C@@H](C(=O)O)c1ccc(-c2ccccc2)c(F)c1` [Flurizan], the “levels of amyloid beta 42 (Aβ42)” value in the data set with amyloid beta 42 (Aβ42) is “reduces levels”.
Take `C#CCN[C@@H]1CCc2ccc(OC(=O)N(C)CC)cc21` [Ladostigil]: in data set [2], the “apoptosis-induced levels of holo-APP protein” value is on record as “reduces apoptosis-induced levels of holo-APP protein”; the “phospho PKC and release of the nonamyloidogenic amyloid protein” value was “increases phospho PKC and the release of the nonamyloidogenic amyloid protein”. The apoptotic cell death result in data set [2] (in response to long term culture) is “reduces apoptotic cell death”.
`CN[C@@H](C)C/C=C/c1cncc(OC(C)C)c1` [TC-1734]: the “release of acetylcholine from the cortex” value in data set [3] is “enhances the release of acetylcholine”.
